Values quoted from earlier work in US10010615B2 (KemPharm, Inc., priority 2009, dated 2018).

Assays:
leptin = details: chronic oral administration for 6 weeks
human NET = human NET (Homo sapiens, UniProt P23975); details: relative to quetiapine
Sequence of human NET (P23975 whole entry): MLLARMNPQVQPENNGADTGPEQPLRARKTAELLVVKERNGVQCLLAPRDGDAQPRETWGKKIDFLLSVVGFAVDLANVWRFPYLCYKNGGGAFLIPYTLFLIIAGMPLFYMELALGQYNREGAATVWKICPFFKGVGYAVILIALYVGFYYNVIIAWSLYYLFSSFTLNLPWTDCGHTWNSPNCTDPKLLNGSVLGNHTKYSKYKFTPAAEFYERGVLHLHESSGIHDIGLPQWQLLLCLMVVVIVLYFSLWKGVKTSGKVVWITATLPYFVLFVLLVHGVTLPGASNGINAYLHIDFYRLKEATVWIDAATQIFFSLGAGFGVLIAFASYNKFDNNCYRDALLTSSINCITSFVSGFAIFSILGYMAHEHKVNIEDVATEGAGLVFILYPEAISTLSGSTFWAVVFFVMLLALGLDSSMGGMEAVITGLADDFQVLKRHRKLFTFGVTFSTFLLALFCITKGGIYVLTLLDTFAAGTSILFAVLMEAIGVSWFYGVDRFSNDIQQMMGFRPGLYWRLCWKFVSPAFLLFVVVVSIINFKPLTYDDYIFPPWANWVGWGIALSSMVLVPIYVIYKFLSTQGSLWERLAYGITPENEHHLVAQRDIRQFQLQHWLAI

Structure (SMILES) | increase in leptin release (leptin) | higher avidity for inhibiting human NET than quetiapine (human NET)
OCCOCCN1CCN(C2=Nc3ccccc3Sc3ccccc32)CC1 [quetiapine, 2-(2-(4-(dibenzo[b,f][1,4]thiazepin-11-yl)piperazin-1-yl)ethoxy)ethanol] | about 37% | 
c1ccc2c(c1)N=C(N1CCNCC1)c1ccccc1S2 [N-desalkyl-quetiapine, 4-(dibenzo[b,f][1,4]thiazepin-11-yl)piperazine] |  | about 100 fold
